Laboratory results from PMC9695592, “Phenotypic Evaluation of Nucleoside Analogues against Trypanosoma cruzi Infection: In Vitro and In Vivo Approaches” (Molecules, 2022).
Where two headings read alike, the source gives them in different places.

How the values were obtained:
[1] = system: promastigotes of LmexCas9; experiment: Resazurin-based assay on LmexCas9 promastigotes; type: cell-based, Leishmania mexicana
Experimental: (§1) Bloodstream trypomastigotes of the Y strain (DTU II) were obtained by cardiac puncture of infected Swiss Webster mice on the parasitemia peak to perform drug sensitivity assays. Trypomastigote forms of the Tulahuen-β gal strain were collected from the supernatant of previously infected L929 cell cultures (host/parasite cell ratio 10:1). The intracellular forms T. cruzi were studied by the infection of L929 and H9C2 (2D and 3D) cell cultures infected for 48 and 24 h with trypomastigotes of Tulahuen-β gal and Y strains, respectively. The Leishmania mexicana-Cas9 T7 strain (LmexCas9) was derived from L. mexicana WT promastigotes by expression of the Streptococcus pyogenes Cas9 nuclease gene ‘Cas9′ and maintained on 32 μg/mL hygromycin [51]. This strain and the derived strains Cas9^ΔNT1 and Cas9^ΔNT1+TcrNT2 were cultured in HOMEM medium supplemented with 10% of FBS and 1% Penicillin-Streptomycin antibiotic in unvented flasks at 25 °C [52]. The Cas9^ΔNT1 strain is identical to Cas9 except that the LmexNT1.1/NT1.2 locus encoding the L. mexicana adenosine/ pyrimidine transporters was excised using Cas9 [17, 40]. Cas9^ΔNT1+TcrNT2 is the further modification of that strain by the expression of the T. cruzi nucleoside transporter 2 (TcrNT2) gene in it, using the vector pNUS-HcN [53]. Appropriate antibiotics were added for the selection and maintenance of transfectants.
(§2) The EC50 values for nucleoside analogues against Leishmania mexicana promastigotes of the Cas9, Cas9^ΔNT1 and Cas9^ΔNT1+TcrNT2 strains used a resazurin-based assay, as described. Briefly, the assays were performed in standard HOMEM medium and culture conditions, in white opaque 96-well plates. For each test compound (stored as a 40 mM stock solution in 100% DMSO at −20 °C), a doubling dilution was performed over 2 rows of the plate, keeping the last well free as no-drug control with HOMEM only (23 doubling dilutions; highest concentration 100 µM). To each well, 100 µL of HOMEM containing 2 × 10^5 cells of the appropriate L. mexicana line was added, and the plates incubated for 72 h at 25 °C, followed by the addition of 20 µL of resazurin solution and further incubation for 48 h. Fluorescence was read on a FLUOstar OPTIMA plate reader (BMG Labtech, Germany), at an excitation wavelength of 544 nm and an emission wavelength of 620 nm. The EC50 values were determined by the GraphPad Prism 8.0 software using an equation for a sigmoid curve with variable slope. Pentamidine was used as positive control, and every experiment was independently performed at least 3 times independently.

[2] = system: promastigotes of Cas9^ΔNT1; experiment: Resazurin-based assay on Cas9^ΔNT1 promastigotes; type: cell-based, Leishmania mexicana; conditions: Leishmania mexicana, read-out: Cas9^ΔNT1 EC50 (μM), promastigotes, resazurin-based assay, highest concentration 100 µM
Experimental: as §1, §2

[3] = system: promastigotes of Lmex^ΔNT1+TcrNT2; experiment: Resazurin-based assay on Cas9^ΔNT1+TcrNT2 promastigotes; type: cell-based, Leishmania mexicana; conditions: for EC50: Leishmania mexicana, read-out: Lmex^ΔNT1+TcrNT2 EC50 (μM); for Lmex^ΔNT1+TcrNT2 Sensitization (fold): ratio of the EC50 values of the Cas9^ΔNT1 and Cas9^ΔNT1+TcrNT2 strains
Experimental: as §1, §2

LmexNT1 = LmexNT1 (Leishmania mexicana, UniProt E9AQB5); experiment: Inhibition of [3H]-adenosine uptake by LmexNT1.1 expressed in L. mexicana promastigotes; type: biochemical
LmexNT1, sequence (E9AQB5 entry or part of it): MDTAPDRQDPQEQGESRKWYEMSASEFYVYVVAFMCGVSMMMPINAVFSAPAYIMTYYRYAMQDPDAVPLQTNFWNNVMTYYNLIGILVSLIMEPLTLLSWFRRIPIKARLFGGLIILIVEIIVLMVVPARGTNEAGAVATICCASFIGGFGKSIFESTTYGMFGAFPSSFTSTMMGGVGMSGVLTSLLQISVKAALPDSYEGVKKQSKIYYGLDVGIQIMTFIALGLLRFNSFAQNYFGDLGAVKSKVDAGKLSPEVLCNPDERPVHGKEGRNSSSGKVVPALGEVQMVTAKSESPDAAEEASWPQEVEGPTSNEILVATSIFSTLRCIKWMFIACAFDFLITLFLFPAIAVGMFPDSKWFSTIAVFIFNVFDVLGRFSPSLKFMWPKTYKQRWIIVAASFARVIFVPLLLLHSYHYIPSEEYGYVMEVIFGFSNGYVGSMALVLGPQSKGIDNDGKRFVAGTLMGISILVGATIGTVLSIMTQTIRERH
Experimental: Figure 2 Uptake of 50 nM [^3H]-adenosine by LmexNT1.1 expressed in L. mexicana promastigotes from which both original alleles of LmexNT1.1/NT1.2 and of LmexNT2 had been deleted by CRISPR/cas9. Incubation time was 10 s, well within the linear phase of uptake. Symbols represent averages of triplicate determinations, and error bars indicate ± SEM when not shown error bars fall within the symbol. The graph shown is a single experiment in triplicate, representative of three identical, independent repeats.
Uptake of 50 nM 2,8-^3H-adenosine (American Radiolabelled Chemicals (ART0287A), 40 Ci/ mmol) was exactly measured, exactly as described. Briefly, promastigotes were washed into the standard assay buffer (AB) by centrifugation, and aliquots of 100 µL containing 10^7 parasites were incubated with the radiolabel on top of an oil layer in a microfuge tube, for exactly 5 s. The incubation was stopped by the addition of 800 µL of ice-cold 1 mM adenosine in AB and immediate centrifugation through the oil layer to separate cells from the remaining extracellular radiolabel. Cell pellets were collected in scintillation vials after flash freezing in liquid nitrogen, by cutting of the tip of the microfuge tube. The promastigotes were then solubilised in 1% SDS, and scintillation fluid was added (Scintlogic U, Lablogic), and radioactivity was quantified in a Hidex 300SL scintillation counter (Lablogic). Data was plotted using non-linear regression with an equation for a sigmoid curve with a variable slope in Prism v8 (GraphPad).

H9C2 2D cultures = experiment: Cardiotoxicity on H9C2 monolayers (2D), PrestoBlue; type: cell-based; conditions: Rattus norvegicus, 168 h; 2D H9C2, seven days of compound incubation; 95% confidence interval in brackets; read-out: Cardiotoxic profile IC50 (µM) 2D
Excerpt: (§3) L929 cell lines were used to evaluate the effect of the nucleoside derivatives on the cellular viability of mammalian host cells and to assess their activity against intracellular forms of T. cruzi (Tulahuen strain expressing E. coli β-galactosidase gene, DTU VI) as reported. 2D and 3D culture systems of rat cardiomyoblast cell lines (H9C2(2-1)) were used to evaluate cardiotoxicity and to test the derivatives’ activity on intracellular forms (Y strain, DTU II). In all assays, the cell cultures were maintained at 37 °C under an atmosphere of 5% CO2.
L929 cells seeded in sterile 96-well microtiter plates were exposed or not to increasing concentrations (up to 200 µM) of the compounds. […] Cellular viability was assessed through AlamarBlue® (resazurin sodium salt) colorimetric assay, and the results were expressed as % reduction in cell growth/viability compared to untreated control, and an IC50 value determined. For the assays using H9C2 cultures, 25 × 10^3 cells/well were seeded in a 96-well microtiter plates (flat and U bottoms, precoated with agarose 1% for preparing 2- and 3D matrices, respectively) and maintained at 37 °C [48, 54].
[…] Cell viability was measured using the PrestoBlue® (PB) colorimetric assay, the results evaluated as % reduction in cell growth/viability compared to untreated control, and an IC50 value determined. The data results from at least two independent experiments done in at least duplicates.

H9C2 3D cultures = experiment: Cardiotoxicity on H9C2 organoids (3D), PrestoBlue; type: cell-based, rat; conditions: Rattus norvegicus, H9c2, 168 h, 3D H9C2, seven days of compound incubation; 95% confidence interval in brackets; read-out: Cardiotoxic profile IC50 (µM) 3D
Excerpt: as §3
L929 cells seeded in sterile 96-well microtiter plates were exposed or not to increasing concentrations (up to 200 µM) of the compounds. After seven days of incubation, the cell growth of treated cultures was compared to untreated control cells (100% cell growth). Cellular viability was assessed through AlamarBlue® (resazurin sodium salt) colorimetric assay, and the results were expressed as % reduction in cell growth/viability compared to untreated control, and an IC50 value determined. For the assays using H9C2 cultures, 25 × 10^3 cells/well were seeded in a 96-well microtiter plates (flat and U bottoms, precoated with agarose 1% for preparing 2- and 3D matrices, respectively) and maintained at 37 °C [48, 54].
The cardiac cultures were exposed or not to increasing concentrations of the nucleoside derivatives (up to 300 µM), and after seven days of incubation, their physiology and morphology was evaluated by light microscopy. Cell viability was measured using the PrestoBlue® (PB) colorimetric assay, the results evaluated as % reduction in cell growth/viability compared to untreated control, and an IC50 value determined. The data results from at least two independent experiments done in at least duplicates.

[4] = Leishmania mexicana, read-out: Cas9 EC50 (μM), promastigotes, resazurin-based assay, highest concentration 100 µM

Compound | EC50 [1, 4] [µM] | EC50 ([1]; read-out: Cas9 EC50, promastigotes, resazurin-based assay, highest concentration 100 µM) [µM] | EC50 [2] [µM] | EC50 [3] [µM] | Lmex^ΔNT1+TcrNT2 Sensitization (fold) [3] [fold] | Ki (LmexNT1) [µM] | IC50 (H9C2 2D cultures) [µM] | IC50 (H9C2 3D cultures) [µM]
Nc1ncnc2c1c(-c1ccc(Cl)c(Cl)c1)cn2[C@@H]1O[C@H](CO)[C@@H](O)[C@H]1O [FH3147, 7-(3,4-dichlorophenyl)tubercidin] | 8.4 ± 1.6 | 8.41 ± 1.61 | > 100 | 13.7 ± 1.25 |  |  |  | 
Nc1ncnc2c1c(Cl)cn2[C@@H]1O[C@H](CO)[C@@H](O)[C@H]1O [FH3169] | 0.24 ± 0.06 |  | 2 ± 0.19 | 0.32 ± 0.05 | 6.3 | 2.8 ± 0.2 |  | 
N=C(N)c1ccc(OCCCCCOc2ccc(C(=N)N)cc2)cc1 [Pentamidine, reference compound] | 0.87 ± 0.1 |  | 1.25 ± 0.22 | 1.12 ± 0.17 | 1.11 |  | 46 | > 200
Nc1ncnc2c1c(-c1ccccc1)cn2[C@@H]1O[C@H](CO)[C@@H](O)[C@H]1O [TH1004] | 37 ± 0.23 |  | 138 ± 10 | 101 ± 0.5 | 1.37 | 3.8 ± 0.3 |  | 
Nc1ncnc2c1c(-c1ccc(Cl)cc1)cn2[C@@H]1O[C@H](CO)[C@@H](O)[C@H]1O [TH1012] | 52.5 ± 0.3 |  | 280 ± 18 | 96.6 ± 0.3 | 2.9 |  |  | 
Nc1ncnc2c1ccn2[C@@H]1O[C@H](CO)[C@@H](O)[C@H]1O [Tubercidin, reference compound] | 1.02 ± 0.16 |  | 25.7 ± 0.94 |  |  | 5.8 ± 0.6 |  | 
